Laboratory results: PubChem BioAssay AID248 (DTP/NCI, 2004)
Values joined by “and” are separate entries in the source; they are usually repeats but may differ in a detail not shown here. Equal values may be shown once. Toxic doses and inconclusive results are not listed. No stated cut-off is given here; in the data, active means T/C of 150% or more; inactive means T/C below 125%.

Tested on: L1210 leukemia ip in BDF1 mice, survival T/C
Assay: NCI In Vivo Anticancer Drug Screen. Data for tumor model L1210 Leukemia (intraperitoneal) in B6D2F1 (BDF1) mice
Details: endpoint: mean survival time, higher = longer survival
Procedure, shortened: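 Ratio derived from survival: compound-dosed mice over vehicle-dosed mice, all bearing a transplantable tumor.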

[1] = dose: 50.0 mg/kg/injection, schedule: Q01DX001 (ip), vehicle: saline
[2] = dose: 100.0 mg/kg/injection, schedule: Q01DX001 (ip), vehicle: saline
[3] = dose: 200.0 mg/kg/injection, schedule: Q01DX001 (ip), vehicle: saline
[4] = dose: 400.0 mg/kg/injection, schedule: Q01DX001 (ip), vehicle: saline
[5] = dose: 100.0 mg/kg/injection, schedule: Q04DX002 (ip), vehicle: Klucel (hydroxypropylcellulose) (HPC)
[6] = dose: 100.0 mg/kg/injection, schedule: Q04DX003 (ip), vehicle: saline
[7] = dose: 200.0 mg/kg/injection, schedule: Q04DX003 (ip), vehicle: saline
[8] = dose: 400.0 mg/kg/injection, schedule: Q04DX003 (ip), vehicle: saline
[9] = dose: 100.0 mg/kg/injection, schedule: Q01DX009 (ip), vehicle: Klucel (hydroxypropylcellulose) (HPC)
[10] = dose: 100.0 mg/kg/injection, schedule: Q04DX003 (ip), vehicle: Klucel (hydroxypropylcellulose) (HPC)
[11] = dose: 200.0 mg/kg/injection, schedule: Q01DX009 (ip), vehicle: Klucel (hydroxypropylcellulose) (HPC)
[12] = dose: 200.0 mg/kg/injection, schedule: Q04DX003 (ip), vehicle: Klucel (hydroxypropylcellulose) (HPC)
[13] = dose: 400.0 mg/kg/injection, schedule: Q01DX009 (ip), vehicle: Klucel (hydroxypropylcellulose) (HPC)
[14] = dose: 400.0 mg/kg/injection, schedule: Q04DX003 (ip), vehicle: Klucel (hydroxypropylcellulose) (HPC)
[15] = dose: 100.0 mg/kg/injection, schedule: Q01DX009 (ip), vehicle: saline with Tween-80
[16] = dose: 200.0 mg/kg/injection, schedule: Q01DX009 (ip), vehicle: saline with Tween-80
[17] = dose: 400.0 mg/kg/injection, schedule: Q01DX009 (ip), vehicle: saline with Tween-80

Measured: T/C

NC(N)=N/N=C(/CC(=O)c1ccccc1)c1ccccc1
inactive: dose: 15.0 mg/kg/injection, schedule: Q01DX Z (ip), vehicle: carboxymethylcellulose (CMC) 103 % of control | dose: 30.0 mg/kg/injection, schedule: Q01DX Z (ip), vehicle: carboxymethylcellulose (CMC) 107 % of control | dose: 30.0 mg/kg/injection, schedule: Q01DX Z (oral), vehicle: carboxymethylcellulose (CMC) 98 % of control | dose: 60.0 mg/kg/injection, schedule: Q01DX Z (ip), vehicle: carboxymethylcellulose (CMC) 101 % of control | dose: 60.0 mg/kg/injection, schedule: Q01DX Z (oral), vehicle: carboxymethylcellulose (CMC) 96 % of control | dose: 120.0 mg/kg/injection, schedule: Q01DX Z (oral), vehicle: carboxymethylcellulose (CMC) 98 % of control | dose: 240.0 mg/kg/injection, schedule: Q01DX Z (oral), vehicle: carboxymethylcellulose (CMC) 93 % of control and 100 % of control | dose: 480.0 mg/kg/injection, schedule: Q01DX Z (oral), vehicle: carboxymethylcellulose (CMC) 100 % of control

C(/CCC/C=N/Nc1ccccc1)=N\Nc1ccccc1
inactive: [1] 103 % of control | [2] 100 % of control | [3] 109 % of control | [4] 100 % of control

COC(=O)C1(C)CCCC2(C)c3cc(OC)ccc3C3OC3C12 (stereo unspecified)
inactive: dose: 100.0 mg/kg/injection, schedule: Q04DX003 (ip), vehicle: other 103 % of control | dose: 200.0 mg/kg/injection, schedule: Q04DX003 (ip), vehicle: other 100 % of control | dose: 400.0 mg/kg/injection, schedule: Q04DX003 (ip), vehicle: other 101 % of control

[N-]=[N+]=NC1=NN2NNN=C2C(N)=C1
inactive: [2] 105 % of control | [3] 107 % of control

CCC(O)(CC)C(=O)Nc1ccccc1
inactive: [1] 98 % of control | [2] 104 % of control | [3] 96 % of control | [4] 102 % of control

NC(=S)Nc1cccnc1
inactive: dose: 25.0 mg/kg/injection, schedule: Q04DX002 (ip), vehicle: Klucel (hydroxypropylcellulose) (HPC) 91 % of control | dose: 50.0 mg/kg/injection, schedule: Q04DX002 (ip), vehicle: Klucel (hydroxypropylcellulose) (HPC) 91 % of control | [5] 97 % of control

CCOC(=O)CNc1ccc(Br)cc1
inactive: [5] 108 % of control | dose: 200.0 mg/kg/injection, schedule: Q04DX002 (ip), vehicle: Klucel (hydroxypropylcellulose) (HPC) 108 % of control

CCCCN(CCCC)S(=O)(=O)CCCC
inactive: [6] 91 % of control | [7] 103 % of control | [8] 94 % of control

CC(=O)c1ccccc1C(C)c1ccc2cccc(F)c2c1 (stereo unspecified)
inactive: dose: 75.0 mg/kg/injection, schedule: Q01DX001 (ip), vehicle: Klucel (hydroxypropylcellulose) (HPC) 96 % of control | dose: 150.0 mg/kg/injection, schedule: Q01DX001 (ip), vehicle: Klucel (hydroxypropylcellulose) (HPC) 100 % of control | dose: 300.0 mg/kg/injection, schedule: Q01DX001 (ip), vehicle: Klucel (hydroxypropylcellulose) (HPC) 102 % of control

COc1nc(Cl)nc(Cl)c1Cl (tested in a mixture with another compound)
inactive: dose: 50.0 mg/kg/injection, schedule: Q01DX009 (ip), vehicle: other 87 % of control | dose: 100.0 mg/kg/injection, schedule: Q01DX009 (ip), vehicle: other 102 % of control

COc1ccc(C=Nc2ccc([N+](=O)[O-])cc2O)cc1
inactive: dose: 100.0 mg/kg/injection, schedule: Q01DX001 (ip), vehicle: carboxymethylcellulose (CMC) 96 % of control | dose: 200.0 mg/kg/injection, schedule: Q01DX001 (ip), vehicle: carboxymethylcellulose (CMC) 94 % of control | dose: 400.0 mg/kg/injection, schedule: Q01DX001 (ip), vehicle: carboxymethylcellulose (CMC) 90 % of control

O=C(/C(=N/Nc1ccccc1)c1ccccc1)c1ccccc1
inactive: dose: 25.0 mg/kg/injection, schedule: Q04DX003 (ip), vehicle: Klucel (hydroxypropylcellulose) (HPC) 104 % of control | dose: 50.0 mg/kg/injection, schedule: Q04DX003 (ip), vehicle: Klucel (hydroxypropylcellulose) (HPC) 95 % of control | [9] 108 % of control | [10] 100 % of control and 103 % of control | [11] 104 % of control | [12] 97 % of control | [13] 104 % of control | [14] 95 % of control

C/C(=N/O)c1c[n+]([O-])ccn1
inactive: dose: 100.0 mg/kg/injection, schedule: Q01DX009 (ip), vehicle: saline 102 % of control | [10] 94 % of control | [6] 101 % of control | dose: 200.0 mg/kg/injection, schedule: Q01DX009 (ip), vehicle: saline 94 % of control | [12] 94 % of control | [7] 98 % of control | dose: 400.0 mg/kg/injection, schedule: Q01DX009 (ip), vehicle: saline 96 % of control | [14] 100 % of control | [8] 102 % of control

O=C(O)CCC(C(=O)O)N1C(=O)c2ccccc2C1=O (stereo unspecified)
inactive: dose: 100.0 mg/kg/injection, schedule: Q04DX003 (ip), vehicle: saline with Tween-80 97 % of control | dose: 200.0 mg/kg/injection, schedule: Q04DX003 (ip), vehicle: saline with Tween-80 102 % of control | dose: 400.0 mg/kg/injection, schedule: Q04DX003 (ip), vehicle: saline with Tween-80 105 % of control

CCCCNc1nc(SC)nc2nc[nH]c12
inactive: [10] 95 % of control | [12] 96 % of control | [14] 91 % of control

CC(=O)c1csc2ccccc12
inactive: dose: 12.5 mg/kg/injection, schedule: Q01DX009 (ip), vehicle: Klucel (hydroxypropylcellulose) (HPC) 106 % of control | dose: 25.0 mg/kg/injection, schedule: Q01DX009 (ip), vehicle: Klucel (hydroxypropylcellulose) (HPC) 101 % of control | dose: 50.0 mg/kg/injection, schedule: Q01DX009 (ip), vehicle: Klucel (hydroxypropylcellulose) (HPC) 106 % of control

Cc1ccc(NC(=O)OCCCl)cc1
inactive: [2] 117 % of control | [3] 112 % of control

CCOC(=O)NCc1ccco1
inactive: dose: 5.0 mg/kg/injection, schedule: Q01DX009 (ip), vehicle: saline 89 % of control | dose: 10.0 mg/kg/injection, schedule: Q01DX009 (ip), vehicle: saline 109 % of control | dose: 20.0 mg/kg/injection, schedule: Q01DX009 (ip), vehicle: saline 93 % of control

CCCOCCOCCOC(C)Oc1ccccc1OC (stereo unspecified)
inactive: dose: 100.0 mg/kg/injection, schedule: Q04DX002 (ip), vehicle: saline 92 % of control | dose: 200.0 mg/kg/injection, schedule: Q04DX002 (ip), vehicle: saline 88 % of control | dose: 400.0 mg/kg/injection, schedule: Q04DX002 (ip), vehicle: saline 95 % of control

C[N+]1=CN(c2ccc(Cl)cc2)Cc2cc(Cl)ccc21
inactive: [9] 95 % of control | [10] 105 % of control | [11] 106 % of control | [12] 91 % of control | [13] 107 % of control | [14] 93 % of control

CCOC(=O)C(=CNc1cccc(C)n1)C(=O)OCC
inactive: [15] 100 % of control | [16] 102 % of control | [17] 100 % of control

CCOC(=O)CC(C)(N)NC(N)=O (stereo unspecified)
inactive: [15] 98 % of control | [6] 104 % of control | [16] 93 % of control | [7] 106 % of control | [17] 90 % of control | [8] 106 % of control
